From ChEMBL document CHEMBL1127412, “PRO_LIGAND: an approach to de novo molecular design. 2. Design of novel molecules from molecular field analysis (MFA) models and pharmacophores” (J Med Chem, 1994)
Non-standard residues stand in square brackets, D forms with d. Residues, ends and D or L forms follow the SMILES beside them. Nle = CCCC[C@H](N)C(=O)O

Molecular target: Angiotensin-converting enzyme (Homo sapiens, UniProt P12821)
Experiment: Inhibition against ACE.

IC50 [µM]	Structure (SMILES)
16	C[C@H](NC(=O)[C@@H](N)CCCNC(=N)N)C(=O)N1CCC[C@H]1C(=O)O (H-Arg-Ala-Pro-OH)
3.7	CC[C@H](C)[C@H](N)C(=O)N[C@@H](Cc1ccc(O)cc1)C(=O)O (H-Ile-Tyr-OH)
2.3	CC(C)C[C@H](N)C(=O)N[C@@H](C)C(=O)N1CCC[C@H]1C(=O)O (H-Leu-Ala-Pro-OH)
4.2	C[C@H](NC(=O)[C@@H](N)Cc1ccccc1)C(=O)N1CCC[C@H]1C(=O)O (H-Phe-Ala-Pro-OH)
78	N[C@@H](Cc1ccccc1)C(=O)N1CCC[C@H]1C(=O)N1CCC[C@H]1C(=O)O (H-Phe-Pro-Pro-OH)
0.7	CCCC[C@H](N)C(=O)N[C@@H](C)C(=O)N1CCC[C@H]1C(=O)O (H-[Nle]-Ala-Pro-OH)
